This note sets out measurements from patent publication US9850283B2, “Macrocyclic inhibitors of the PD-1/PD-L1 and CD80(B7-1)/PD-L1 protein/protein interactions” (BRISTOL-MYERS SQUIBB COMPANY, priority 2013, dated 2017).

In assay [1] the target is T1, Human PD-L1/PD-1 (Homo sapiens, UniProt Q9NZQ7).
T1 construct: made in house; host or cells: HEK293T
Nature of the assay: HTRF PD-1-Ig/PD-L1-His binding assay (human PD-L1). The note with it: cluster symbol; read-out: HTRF IC50 cluster. The method, boiled down:
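Steps: truncated PD-1-Ig and PD-L1-His fusions are incubated in dPBS containing 0.1% (w/v) BSA and 0.05% (v/v) Tween-20. Detection antibodies are then added (Eu cryptate anti-Ig at 1 nM final, APC anti-His at 20 nM final), and time-resolved FRET is measured.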
On the technique in general: TR-FRET usually uses a lanthanide donor and a delayed reading to cut background.

In assay [2] the target is T2, LK35.2-hPD-L1 cells / PE-labeled PD-1-Ig (Homo sapiens, UniProt Q9NZQ7).
T2 construct: expressed in transfected cells; host or cells: LK35.2 mouse B cell line
T2 sequence (Q9NZQ7 19-290): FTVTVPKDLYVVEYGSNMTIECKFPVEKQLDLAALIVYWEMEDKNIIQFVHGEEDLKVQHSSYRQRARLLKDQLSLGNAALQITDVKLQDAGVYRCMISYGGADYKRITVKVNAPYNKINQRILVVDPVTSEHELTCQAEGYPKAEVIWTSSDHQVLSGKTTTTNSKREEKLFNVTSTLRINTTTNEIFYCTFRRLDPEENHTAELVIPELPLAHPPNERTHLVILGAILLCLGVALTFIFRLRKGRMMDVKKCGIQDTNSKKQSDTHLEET
Nature of the assay: LK35.2-hPD-L1 cell binding high-content screening assay. The class given is cell-based. The note with it: cluster symbol, read-out: CBA IC50 cluster. The procedure, abridged: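 Compound effect on PD-1/PD-L1 binding is measured by imaging cell-associated phycoerythrin signal. Human PD-1-Ig (PE on Ig tag, 1 nM final) is applied with compound to a murine B cell line overexpressing human PD-L1 for 1 h at 37 °C in serum-containing RPMI.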

[3] abbreviates: cell line of CBA not given (LK35.2-hPD-L1 or 293T-hPD-L1).
Where [4] appears, read: cell binding assay, cell line not given.

Read-outs that look alike come from different tables or passages of the source. Positions of bridges follow the written chain, without caps; N, C: chain ends. Non-standard residues stand in square brackets, D forms with d. Residues, ends and D or L forms follow the SMILES beside them. Phe(4-CONH2) = NC(=O)c1ccc(C[C@H](N)C(=O)O)cc1; 2Nal = N[C@@H](Cc1ccc2ccccc2c1)C(=O)O; Bta = N[C@@H](Cc1csc2ccccc12)C(=O)O; Hyp = O=C(O)[C@@H]1C[C@@H](O)CN1; NMeF = CN[C@@H](Cc1ccccc1)C(=O)O; hPhe = N[C@@H](CCc1ccccc1)C(=O)O; NMeE = CN[C@@H](CCC(=O)O)C(=O)O; NMeNle = CCCC[C@H](NC)C(=O)O; NMeA = CN[C@@H](C)C(=O)O; Orn = NCCC[C@H](N)C(=O)O; Dab = NCC[C@H](N)C(=O)O; Dap = NC[C@H](N)C(=O)O; Sar = CNCC(=O)O

T1 sequence (Q9NZQ7 with tags, fused parts or gaps): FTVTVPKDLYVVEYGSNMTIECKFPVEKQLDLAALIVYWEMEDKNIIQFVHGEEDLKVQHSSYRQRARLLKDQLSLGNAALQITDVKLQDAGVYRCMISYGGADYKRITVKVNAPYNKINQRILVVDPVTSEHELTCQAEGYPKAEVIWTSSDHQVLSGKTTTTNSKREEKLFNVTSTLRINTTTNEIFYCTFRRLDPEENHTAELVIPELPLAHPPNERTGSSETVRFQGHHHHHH

For orientation: IC50 means the concentration needed to halve the response being measured. Turning to `CCCC[C@H]1C(=O)N(C)[C@@H](CCCC)C(=O)N[C@@H](CCCNC(=N)N)C(=O)N[C@H](C(=O)NCC(N)=O)CSCC(=O)N[C@@H](Cc2ccc(O)cc2)C(=O)N(C)[C@@H](C)C(=O)N[C@@H](CCC(=O)O)C(=O)N2CCC[C@H]2C(=O)N[C@@H](Cc2cnc[nH]2)C(=O)N[C@@H](CC(C)C)C(=O)N2C[C@H](O)C[C@H]2C(=O)N[C@@H](Cc2c[nH]c3ccccc23)C(=O)N[C@@H](CO)C(=O)N[C@@H](Cc2c[nH]c3ccccc23)C(=O)N1C` [Example 1175] ({CH2CO}-Y[NMeA]EPHL[Hyp]WSW[NMeNle][NMeNle]RCG-NH2; thioether N-14), the IC50 was 0.385 to 6.74 nM in assay [1] and 4.78 to 72.9 nM in assay [2] (setting [3]).
`CCCC[C@H]1C(=O)N(C)CC(=O)N[C@@H](CC(=O)O)C(=O)N[C@@H](C(C)C)C(=O)N(C)[C@@H](Cc2ccccc2)C(=O)N[C@@H](Cc2ccc(O)cc2)C(=O)N(C)CC(=O)N[C@@H](Cc2c[nH]c3ccccc23)C(=O)N[C@@H](Cc2ccc3ccccc3c2)C(=O)N[C@@H](CC(C)C)C(=O)N[C@H](C(=O)NCC(N)=O)CSCC(=O)N[C@@H](Cc2ccccc2)C(=O)N(C)[C@@H](Cc2ccccc2)C(=O)N1C` [Example 3538] ({CH2CO}-F[NMeF][NMeNle][Sar]DV[NMeF]Y[Sar]W[2Nal]LCG-NH2; thioether N-13): the half-maximal inhibitory concentration (IC50) in assay [1] was greater than 30.5 nM; in assay [2] (setting [4]), greater than 74.3 nM.
Turning to `CCCC[C@H]1C(=O)N(C)CC(=O)N[C@@H](CC(=O)O)C(=O)N[C@@H](C(C)C)C(=O)N(C)[C@@H](Cc2ccccc2)C(=O)N[C@@H](CCC(=O)O)C(=O)N(C)CC(=O)N[C@@H](Cc2c[nH]c3ccccc23)C(=O)N[C@@H](Cc2ccc(O)cc2)C(=O)N[C@@H](CC(C)C)C(=O)N[C@H](C(=O)NCC(N)=O)CSCC(=O)N[C@@H](Cc2ccccc2)C(=O)N(C)[C@@H](Cc2ccccc2)C(=O)N1C` [Example 3507] (HELM PEPTIDE1{[O=C(C[*:3])[*:2]].F.[meF].[CCCC[C@@H](C(=O)[*:2])N(C)[*:1]].[Sar].D.V.[meF].E.[Sar].W.Y.L.C.G.[am]}$PEPTIDE1,PEPTIDE1,1:R3-14:R3$$$V2.0), the IC50 is 6.76 to 30.3 nM in assay [1] and greater than 74.3 nM in assay [2] (setting [4]).
On to `CCCC[C@H]1C(=O)N[C@@H](CCCNC(=N)N)C(=O)N[C@H](C(=O)NCC(N)=O)CSCC(=O)N[C@@H](Cc2ccccc2)C(=O)N(C)[C@@H](C)C(=O)N[C@@H](CC(N)=O)C(=O)N2CCC[C@H]2C(=O)N[C@@H](Cc2cnc[nH]2)C(=O)N[C@@H](CC(C)C)C(=O)N(C)CC(=O)N[C@@H](Cc2c[nH]c3ccccc23)C(=O)N[C@@H](CO)C(=O)N[C@@H](Cc2c[nH]c3ccccc23)C(=O)N[C@@H](CCc2ccccc2)C(=O)N1C` [Example 1006] ({CH2CO}-F[NMeA]NPHL[Sar]WSW[hPhe][NMeNle]RCG-NH2; thioether N-14), for which the values for the IC50 in assay [1] and in assay [2] (setting [3]) were greater than 30.5 nM and greater than 74.3 nM, respectively.
As to `CCCC[C@H]1C(=O)N(C)[C@@H](CCCC)C(=O)N[C@@H](CC(C)C)C(=O)N[C@H](C(=O)NCC(N)=O)CSCC(=O)N[C@@H](Cc2ccc(O)cc2)C(=O)N(C)[C@@H](C)C(=O)N[C@@H](CC(N)=O)C(=O)N2CCC[C@H]2C(=O)N[C@@H](Cc2c[nH]cn2)C(=O)N[C@@H](CCC(=O)O)C(=O)N2C[C@H](O)C[C@H]2C(=O)N[C@@H](Cc2c[nH]c3ccccc23)C(=O)N[C@@H](CCN)C(=O)N[C@@H](Cc2c[nH]c3ccccc23)C(=O)N1C` [Example 5065] ({CH2CO}-Y[NMeA]NPHE[Hyp]W[Dab]W[NMeNle][NMeNle]LCG-NH2; thioether N-14), the IC50 is 0.385 to 6.74 nM in assay [1] and 0.158 to 4.71 nM in assay [2] (setting [4]).
As for `CCCC[C@H]1C(=O)N(C)CC(=O)N[C@@H](CC(=O)O)C(=O)N[C@@H](CC2CCCCC2)C(=O)N(C)[C@@H](Cc2ccccc2)C(=O)N[C@@H](Cc2ccc(O)cc2)C(=O)N(C)CC(=O)N[C@@H](Cc2c[nH]c3ccccc23)C(=O)N[C@@H](Cc2ccc(O)cc2)C(=O)N[C@@H](CC(C)C)C(=O)N[C@H](C(=O)NCC(N)=O)CSCC(=O)N[C@@H](Cc2ccccc2)C(=O)N(C)[C@@H](Cc2ccccc2)C(=O)N1C` [Example 3159] (HELM PEPTIDE1{[O=C(C[*:3])[*:2]].F.[meF].[CCCC[C@@H](C(=O)[*:2])N(C)[*:1]].[Sar].D.[Cha].[meF].Y.[Sar].W.Y.L.C.G.[am]}$PEPTIDE1,PEPTIDE1,1:R3-14:R3$$$V2.0), the IC50 in assay [1] is greater than 30.5 nM; in assay [2] (setting [3]), greater than 74.3 nM.
Consider `CCCC[C@H]1C(=O)N(C)[C@@H](CCCC)C(=O)N[C@@H](CCCNC(=N)N)C(=O)NC(C(=O)NCC(N)=O)CSCC(=O)N[C@@H](Cc2ccc(O)cc2)C(=O)N(C)[C@@H](C)C(=O)N[C@@H](CC(N)=O)C(=O)N2CCC[C@H]2C(=O)N[C@@H](Cc2cnc[nH]2)C(=O)N[C@@H](CC(C)C)C(=O)N2[C@@H](C)CC[C@H]2C(=O)N[C@@H](Cc2c[nH]c3ccccc23)C(=O)N[C@@H](CO)C(=O)N[C@@H](Cc2c[nH]c3ccccc23)C(=O)N1C` (some centres unmarked) [Example 9014], for which the concentration for half-maximal inhibition (IC50) lay within 0.385 to 6.74 nM in assay [1] and 0.158 to 4.71 nM in assay [2] (setting [4]).
For `CCCC[C@H]1C(=O)N(C)CC(=O)N[C@@H](CC(=O)O)C(=O)N[C@@H](C(C)C)C(=O)N(C)[C@@H](Cc2ccccc2)C(=O)N[C@@H](Cc2ccc(O)cc2)C(=O)N(C)CC(=O)N[C@@H](Cc2c[nH]c3ccccc23)C(=O)N[C@@H](Cc2ccc(O)cc2)C(=O)N[C@@H](CC(C)C)C(=O)N[C@H](C(=O)NCC(N)=O)CSCC(=O)N[C@@H](Cc2c[nH]c3ccccc23)C(=O)N(C)[C@@H](Cc2ccccc2)C(=O)N1C` [Example 3090] (HELM PEPTIDE1{[O=C(C[*:3])[*:2]].W.[meF].[CCCC[C@@H](C(=O)[*:2])N(C)[*:1]].[Sar].D.V.[meF].Y.[Sar].W.Y.L.C.G.[am]}$PEPTIDE1,PEPTIDE1,1:R3-14:R3$$$V2.0), the values for the IC50 in assay [1] and in assay [2] (setting [3]) were greater than 30.5 nM and greater than 74.3 nM, respectively.
In the case of `CCCC[C@H]1C(=O)N(C)[C@@H](CCCC)C(=O)N[C@@H](CCCN)C(=O)N[C@H](C(=O)NCC(N)=O)CSCC(=O)N[C@@H](Cc2ccc(O)cc2)C(=O)N(C)[C@@H](C)C(=O)N[C@@H](CC(=O)O)C(=O)N2CCC[C@H]2C(=O)N[C@@H](Cc2c[nH]cn2)C(=O)N[C@@H](CCC(N)=O)C(=O)N2C[C@H](O)C[C@H]2C(=O)N[C@@H](Cc2c[nH]c3ccccc23)C(=O)N[C@@H](CO)C(=O)N[C@@H](Cc2c[nH]c3ccccc23)C(=O)N1C` [Example 5114] ({CH2CO}-Y[NMeA]DPHQ[Hyp]WSW[NMeNle][NMeNle][Orn]CG-NH2; thioether N-14), the 50% inhibitory concentration (IC50) in assay [1] was 0.385 to 6.74 nM; in assay [2] (setting [4]), 0.158 to 4.71 nM.
As for `CCCC[C@H]1C(=O)N(C)[C@@H](CCCC)C(=O)N[C@@H](CCCNC(=N)N)C(=O)N[C@H](C(=O)NCC(N)=O)CSCC(=O)N[C@@H](Cc2ccc(C(N)=O)cc2)C(=O)N(C)[C@@H](C)C(=O)N[C@@H](CC(N)=O)C(=O)N2CCC[C@H]2C(=O)N[C@@H](CN)C(=O)N[C@@H](CC(C)C)C(=O)N2C[C@H](O)C[C@H]2C(=O)N[C@@H](Cc2c[nH]c3ccccc23)C(=O)N[C@@H](CO)C(=O)N[C@@H](Cc2c[nH]c3ccccc23)C(=O)N1C` [Example 7041] ({CH2CO}-[Phe(4-CONH2)][NMeA]NP[Dap]L[Hyp]WSW[NMeNle][NMeNle]RCG-NH2; thioether N-14), the IC50 in assay [1] was in the range of 6.76 to 30.3 nM; in assay [2] (setting [4]) it was 4.78 to 72.9 nM.
Regarding `CCCC[C@@H]1C(=O)N(C)[C@H](CCCC)C(=O)N[C@@H](CCCN)C(=O)N[C@@H](C(=O)NCC(N)=O)CSCC(=O)N[C@@H](Cc2ccc(O)cc2)C(=O)N2CCNCC2C(=O)N[C@H](CC(N)=O)C(=O)N2CCC[C@H]2C(=O)N[C@H](Cc2c[nH]cn2)C(=O)N[C@@H](CC(C)C)C(=O)N2C[C@H](O)CC2C(=O)N[C@H](Cc2c[nH]c3ccccc23)C(=O)N[C@@H](CO)C(=O)N[C@@H](Cc2c[nH]c3ccccc23)C(=O)N1C` (some centres unmarked) [Example 1220], the results for the IC50 in assay [1] and in assay [2] (setting [3]) were 6.76 to 30.3 nM and 4.78 to 72.9 nM, respectively.
The like results for `CCCC[C@H]1C(=O)N(C)[C@@H](CCCC)C(=O)N[C@@H](CCCNC(=N)N)C(=O)N[C@H](C(=O)NCC(N)=O)CSCC(=O)N[C@@H](Cc2ccc(O)cc2)C(=O)N(C)[C@@H](CCC(=O)O)C(=O)N[C@@H](CC(N)=O)C(=O)N2CCC[C@H]2C(=O)N[C@@H](Cc2cnc[nH]2)C(=O)N[C@@H](CC(C)C)C(=O)N2CCC[C@H]2C(=O)N[C@@H](Cc2c[nH]c3ccccc23)C(=O)N[C@@H](CO)C(=O)N[C@@H](Cc2csc3ccccc23)C(=O)N1C` [Example 1191] ({CH2CO}-Y[NMeE]NPHLPWS[Bta][NMeNle][NMeNle]RCG-NH2; thioether N-14) were, in that order, greater than 30.5 nM and greater than 74.3 nM.
In the same order, the values of `CCCC[C@H]1C(=O)N(C)[C@@H](CCCC)C(=O)N[C@@H](CCCNC(=N)N)C(=O)N[C@H](C(=O)NCC(N)=O)CSCC(=O)N[C@@H](Cc2ccccc2)C(=O)N(C)[C@@H](C)C(=O)N[C@@H](CC(N)=O)C(=O)N2CCC[C@H]2C(=O)N[C@@H](Cc2cnc[nH]2)C(=O)N[C@@H](CC(C)C)C(=O)NC(C)(C)C(=O)N[C@@H](Cc2c[nH]c3ccccc23)C(=O)N[C@@H](CO)C(=O)N[C@@H](Cc2c[nH]c3ccccc23)C(=O)N1C` [Example 1110] are greater than 30.5 nM and greater than 74.3 nM.
